Assay results taken from patent US20050065213A1 (priority 2001, published 2005).
Like-named read-outs stand apart in the source and are kept apart here.

Columns and labels:
[1] = system: tubulin; assay: Tubulin assembly inhibition assay; format: biochemical
[2] = system: tubulin; assay: Colchicine competition assay; format: binding
Source text: The compounds have been further tested for their performance in colchicine competition assays, and the results tabulated in Tables 9 to 13.

[3] = system: K562 cell line; assay: Cytotoxicity (IC50) assay against the K562 cell line; format: cell-based; conditions: for activity (in words): cytotoxicity, qualitative statements; for IC50: Homo sapiens, K562 cell line, read-out: IC50 values in the cytotoxicity tests
Description: Compounds based on the aurone structure were prepared as conformationally restricted analogues of the chalcones. They were prepared from the appropriate benzofuranone.

[4] = system: H460 human non small cell lung cells; assay: H460 xenograft in nude mice; format: in vivo
[5] = system: H460 xenograft; assay: H460 xenograft mice, X-Rays plus drug; format: in vivo; conditions: X-Ray plus drug treated group, FIG. 6
Source text: Whilst X-Ray treatment was effective immediately after treatment, fresh tumour growth became evident by 36 days.

[6] = Flow cytometry, percentage of cells in the phases of the cell cycle; format: cell-based; conditions: for % Cells G2-M: control 12.08; for % Cells S-phase: control 32.87; for % Cells G0-G1: control 55.05
Source text: Tables 14 and 15 show the results of tubulin assembly assays and flow cytometry studies on selected compounds of the present invention.

[7] = system: P388 murine leukaemia cell line; conditions: cell line not stated for this statement; cited from earlier work
[8] = tubulin assembly, corrected values scaled by a factor of 5, read-out: IC50 μM (corrected)
[9] = tubulin assembly, original experimental value, read-out: IC50 μM (original)
[10] = tubulin assembly assay, Table 14, read-out: IC(TA)50

IC50 [1, 8]	IC50 [1, 9]	Compound	Colchicine competition, Drug:Protein Ratio 1:1 [2]	Colchicine competition, Drug:Protein Ratio 10:1 [2]	further results
12 µM	2.4 µM	COc1cc(C(=O)/C(C)=C/c2cc(F)c(OC)c(F)c2)cc(OC)c1OC [DR6, (E)-3-(3″, 5″-Difluoro-4″-methoxyphenyl)-2-methyl-1-(3′, 4′,5′-trimethoxyphenyl)-2-propen-1-one]	33	25	–
2.3 µM	0.45 µM	COc1ccc(C=CC(=O)c2ccc(OC)c(OC)c2OC)cc1O [DR8, (E)-3-(3″-Hydroxy-4″-methoxyphenyl)-1-(2′,3′,4′-trimethoxyphenyl)-2-propen-1-one]	–	–	melting point: 85 to 86 °C
2.4 µM	0.47 µM	CO/C(=C\c1ccc(OC)c(F)c1)C(=O)c1cc(OC)c(OC)c(OC)c1 [DR14, (Z)-3-(3″-Fluoro-4″-methoxyphenyl)-2-methoxy-1-(3′,4′,5′-trimethoxyphenyl)-2-propen-1-one]	22	8	melting point: 110 to 112 °C
8.5 µM	1.7 µM	CO/C(=C\c1cc(F)c(OC)c(F)c1)C(=O)c1cc(OC)c(OC)c(OC)c1 [DR15, (Z)-3-(3″,5″-Difluoro-4″-methoxyphenyl)-2-methoxy-1-(3′,4′,5′-trimethoxyphenyl)-2-propen-1-one]	59	41	–
> 100 µM	> 50 µM	COc1ccc(C=C2Oc3cc(OC)c(OC)c(OC)c3C2=O)cc1O [DR23]	–	–	–
> 100 µM	> 50 µM	COc1ccc(C=C2Oc3cc(OC)c(OC)c(OC)c3C2=O)cc1F [DR24]	–	–	–
> 100 µM	22 µM	COc1ccc(/C=C2\Oc3c(cc(OC)c(OC)c3OC)C2=O)cc1O [DR27, 2-[(Z)-(3′-Hydroxy-4′-methoxyphenyl)methylidene]-5,6,7-trimethoxy-1-benzofuran-3-one]	78	59	IC50 [3]: 0.05 µM; melting point: 192 to 193 °C
> 100 µM	> 50 µM	COc1ccc(C=C2Oc3c(cc(OC)c(OC)c3OC)C2=O)cc1F [DR28]	–	–	IC50 [3]: 0.11 µM
> 100 µM	> 50 µM	COc1cc2c(c(OC)c1OC)OC(=Cc1ccc(O)c(O)c1)C2=O [DR31]	–	–	–
> 100 µM	> 50 µM	COc1ccc(-c2cc(=O)c3c(OC)c(OC)c(OC)cc3o2)cc1O [DR33, 2-(3′-Hydroxy-4′-methoxyphenyl)-5,6,7-trimethoxy-4H-chromen-4-one]	–	–	–
> 100 µM	25 µM	COc1ccc(-c2cc(=O)c3cc(OC)c(OC)c(OC)c3o2)cc1O [DR36, 2-(3′-Hydroxy-4′-methoxyphenyl)-6,7,8-trimethoxy-4H-chromen-4-one]	100	43	melting point: 199 to 200 °C
20 µM	4 µM	COc1ccc(C2CC(=O)c3cc(OC)c(OC)c(OC)c32)cc1F (stereo not drawn) [DR59]	100	61	–
> 100 µM	> 50 µM	COc1ccc(C2CC(O)c3cc(OC)c(OC)c(OC)c32)cc1F (stereo not drawn) [DR60]	–	–	–
–	–	COc1ccc(/C=C/C(=O)c2cc(OC)c(OC)c(OC)c2)cc1N [MW65, (E)-3-(3″-Amino-4″-methoxyphenyl)-1-(3′,4′,5′-trimethoxyphenyl)-2-propen-1-one]	–	–	% Cells Debris [6]: 14.10%; % Cells G2-M [6]: 18.52%; % Cells S-phase [6]: 33.18%; % Cells G0-G1 [6]: 48.30%; melting point: 90 to 91 °C
–	–	COc1ccc(/C=C(\C)C(=O)c2cc(OC)c(OC)c(OC)c2)cc1[N+](=O)[O-] [MW68]	–	–	IC50 [1, 10]: > 10 µM; % Cells Debris [6]: 11.27%; % Cells G2-M [6]: 28.29%; % Cells S-phase [6]: 35.36%; % Cells G0-G1 [6]: 36.35%
–	–	COc1ccc(/C=C(\C)C(O)c2cc(OC)c(OC)c(OC)c2)cc1O (stereo not drawn) [MW70]	–	–	IC50 [1, 10]: > 10 µM; % Cells Debris [6]: 15.27%; % Cells G2-M [6]: 23.70%; % Cells S-phase [6]: 32.80%; % Cells G0-G1 [6]: 43.50%
–	–	COc1ccc(CC(C)C(=O)c2cc(OC)c(OC)c(OC)c2)cc1O (stereo not drawn) [MW71]	–	–	IC50 [1, 10]: 4 µM; % Cells Debris [6]: 19.31%; % Cells G2-M [6]: 28.08%; % Cells S-phase [6]: 36.09%; % Cells G0-G1 [6]: 35.84%
–	–	COc1ccc(C2CC(=O)c3cc(OC)c(OC)c(OC)c32)cc1N (stereo not drawn) [MW74, 3-(3′-Amino-4′-methoxyphenyl)-4,5,6-trimethoxy-1-indanone]	–	–	IC50 [1, 10]: ~10 µM; % Cells Debris [6]: 12.72%; % Cells G2-M [6]: 29.10%; % Cells S-phase [6]: 33.76%; % Cells G0-G1 [6]: 37.14%
–	–	COc1ccc(C2CCc3cc(OC)c(OC)c(OC)c32)cc1N (stereo not drawn) [MW82]	–	–	IC50 [1, 10]: > 10 µM; % Cells Debris [6]: 18.58%; % Cells G2-M [6]: 23.34%; % Cells S-phase [6]: 36.26%; % Cells G0-G1 [6]: 40.40%
–	–	COc1ccc(/C=C/C(=O)c2cc(OC)c(OC)c(OC)c2)cc1OP(=O)([O-])[O-].[Na+].[Na+] [SD174a, Disodium 3′-phosphate salt of (E)-1-(3′-Hydroxy-4′-methoxyphenyl)-3-(3″,4″,5″-trimethoxyphenyl)prop-1-en-3-one]	–	–	activity (in words) [3]: potently active
–	–	COc1ccc(/C=C(\C)C(=O)c2cc(OC)c(OC)c(OC)c2)cc1OP(=O)([O-])[O-].[Na+].[Na+] [SD174b, Disodium 3′-phosphate salt of (E)-1-(3′-Hydroxy-4′-methoxyphenyl)-2-methyl-3-(3″,4″,5″-trimethoxyphenyl)prop-1-en-3-one]	–	–	activity (in words) [3]: potently active
–	–	COc1ccc(/C=C/c2cc(OC)c(OC)c(OC)c2)cc1O [trans-combretastatin A-4]	–	–	cell growth inhibition (in words) [7]: μM range

Compound	IC50 [1, 8]	IC50 [1, 9]	Colchicine competition, Drug:Protein Ratio 1:1 [2]	Colchicine competition, Drug:Protein Ratio 10:1 [2]	further results
COc1ccc(/C=C(\C)C(=O)c2cc(OC)c(OC)c(OC)c2)cc1F [DR5, (E)-3-(3″-Fluoro-4″-methoxyphenyl)-2-methyl-1-(3′,4′,5′-trimethoxyphenyl)-2-propen-1-one]	3.5 µM	0.7 µM	14	6	activity (in words) [3]: most active fluorinated analogue; necrosis in tumour ([4]; 24 hours after treatment with 0.75 MTD): necrosis in H460 cancer cells; adverse side effects on healthy surrounding tissue ([4]; H460 xenograft nude mice): no adverse side effects on healthy surrounding tissue; tumour volume / potency with concomitant X-Rays [5]: some initial increase in tumour volume between days 27 and 32, though this was followed by subsequent decrease to a steady baseline at day 34; tumour volume / potency with concomitant X-Rays ([5]; listed as DRA 212): Further improvement in the potency
CO/C(=C\c1ccc(OC)c(O)c1)C(=O)c1cc(OC)c(OC)c(OC)c1 [DR13, (Z)-3-(3″-Hydroxy-4″-methoxyphenyl)-2-methoxy-1-(3′,4′,5′-timethoxyphenyl)-2-propen-1-one]	2.6 µM	0.51 µM	12	5	melting point: 120 to 122 °C
